In brackets after ≈: the same amount, converted by molar mass. Several values for one entry are separate records, joined by “and”; a condition that tells them apart may be missing. Equal values may be shown once.

Here are results for four compounds from DBAASP.

What all share (assay): ≥ marks a high value that may be exact or a test limit, other limits are often not marked, values filed in µg/mL are converted to µM
In experiment [1] the test system is Listeria monocytogenes DBFIQ LM3.
Experiment [2] relates to Staphylococcus aureus DBFIQ S21.
Experiment [3] concerns Bacillus subtilis KCTC 3068.
For experiment [4], the system named is Escherichia coli CCARM 1229.
Experiment [5] relates to Escherichia coli KCTC 1682.
Experiment [6] deals with Pseudomonas aeruginosa KCTC 1637.
Experiment [7] concerns Salmonella typhimurium CCARM 8003.
For experiment [8], the system named is Salmonella typhimurium KCTC 1926.
The subject of experiment [9] is Staphylococcus aureus CCARM 3089.
In experiment [10] the test system is Staphylococcus aureus CCARM 3108.
In experiment [11] the test system is Staphylococcus aureus CCARM 3114.
For experiment [12], the system named is Staphylococcus aureus KCTC 1621.
Experiment [13] deals with Staphylococcus epidermidis KCTC 1917.
Experiment [14] concerns Aspergillus flavus.
Experiment [15] deals with Candida albicans.
Experiment [16] has as its system Malassezia furfur.
Experiment [17] relates to Salmonella typhimurium CCARM 8007.
For experiment [18], the system named is Trichosporon beigelii.
For experiment [19], the system named is Acinetobacter sp. M13523.
Experiment [20] concerns Acinetobacter sp. M5949.
In experiment [21] the test system is Acinetobacter sp. M9013.
Experiment [22] relates to Acinetobacter sp. M9665.
In experiment [23] the test system is Enterococcus faecalis ATCC 29212.
Experiment [24] has as its system Enterococcus faecalis ATCC 51299.
In experiment [25] the test system is Enterococcus faecalis M4899.
Experiment [26] concerns Enterococcus faecalis M6534.
The subject of experiment [27] is Enterococcus faecalis M6983.
Experiment [28] concerns Enterococcus faecium M2304.
In experiment [29] the test system is Enterococcus faecium PZAP 95.
For experiment [30], the system named is Enterococcus gallinarum M2685.
Experiment [31] relates to Enterococcus gallinarum M2723.
The test system of experiment [32] is Escherichia coli ATCC 25922.
Experiment [33] has as its system Escherichia coli M9884.
The subject of experiment [34] is Klebsiella pneumoniae M9170.
Experiment [35] concerns Klebsiella pneumoniae PFAV 3.
Experiment [36] deals with Pseudomonas aeruginosa ATCC 27853.
The test system of experiment [37] is Pseudomonas aeruginosa M13513.
The subject of experiment [38] is Pseudomonas aeruginosa M5470.
The subject of experiment [39] is Pseudomonas aeruginosa PACO12.
The test system of experiment [40] is Staphylococcus aureus ATCC 25923.
For experiment [41], the system named is Staphylococcus aureus M6276.
The test system of experiment [42] is Staphylococcus aureus P204.
Experiment [43] concerns Staphylococcus aureus P33.
Experiment [44] has as its system Staphylococcus cohnii.
The subject of experiment [45] is Staphylococcus epidermidis M2921.
Experiment [46] relates to Staphylococcus epidermidis M2923.
Experiment [47] relates to Staphylococcus haemolyticus M2976.
The test system of experiment [48] is Staphylococcus hominis M2967.
Experiment [49] has as its system Staphylococcus hominis M2973.
Experiment [50] has as its system Staphylococcus saprophyticus M4070.
The test system of experiment [51] is Staphylococcus warneri.

A word on the MIC: it is the lowest concentration found to suppress growth. Low readings indicate a more susceptible organism, high ones a less susceptible organism. In the case of `CC[C@H](C)[C@H](NC(=O)[C@H](C)NC(=O)[C@@H](NC(=O)[C@H](C)NC(=O)CN)[C@@H](C)O)C(=O)N[C@@H](CCCCN)C(=O)N[C@@H](CCC(N)=O)C(=O)N[C@H](C(=O)N[C@@H](CCCCN)C(=O)N[C@@H](CCCCN)C(=O)N[C@@H](CC(C)C)C(=O)N[C@@H](Cc1c[nH]c2ccccc12)C(=O)N[C@@H](CCCCN)C(=O)N[C@@H](CCCCN)C(=O)N[C@@H](CCCCN)C(=O)NCC(=O)NCC(N)=O)C(C)C` [GATAIKQVKKLWKKKGG], the MIC in experiment [1] and in [2] was at least 69.6 µM throughout.

Turning to `CC[C@H](C)[C@H](NC(=O)[C@H](C)NC(=O)[C@H](CC(C)C)NC(=O)[C@H](Cc1c[nH]c2ccccc12)NC(=O)[C@H](CC(C)C)NC(=O)[C@@H](N)CCCN=C(N)N)C(=O)NCC(=O)N[C@@H](CCCN=C(N)N)C(=O)N[C@@H](CCCN=C(N)N)C(N)=O` [RLWLAIGRR], the minimum inhibitory concentration (MIC) in [3] is 4 µM (≈ 4.56 µg/mL); in experiment [4], 8 µM (≈ 9.12 µg/mL); in experiment [5] it was 4 µM (≈ 4.56 µg/mL); in experiment [6], 16 µM (≈ 18.2 µg/mL); in experiment [7], at least 32 µM; in experiment [8], 16 µM (≈ 18.2 µg/mL). Moreover, the minimum inhibitory concentration (MIC) in [9] came to 8 µM (≈ 9.12 µg/mL); in experiment [10] it was 4 µM (≈ 4.56 µg/mL); in experiment [11], 16 µM (≈ 18.2 µg/mL); in [12], 4 µM (≈ 4.56 µg/mL); in experiment [13], 2 µM (≈ 2.28 µg/mL).

For the compound `CC(C)C[C@H](NC(=O)[C@H](Cc1c[nH]c2ccccc12)NC(=O)[C@H](CC(C)C)NC(=O)[C@@H](N)CCCN=C(N)N)C(=O)N[C@@H](C)C(=O)N[C@@H](Cc1c[nH]c2ccccc12)C(=O)N[C@@H](CCCCN)C(=O)N[C@@H](CCCN=C(N)N)C(=O)N[C@@H](CCCN=C(N)N)C(N)=O` [RLWLAWKRR], the MIC came to 5 µM (≈ 6.42 µg/mL) in experiment [14]; 2 µM (≈ 2.57 µg/mL) in experiment [3]; 2.5 µM (≈ 3.21 µg/mL) in experiment [15]; 4 µM (≈ 5.13 µg/mL) in experiment [4]; 2 µM (≈ 2.57 µg/mL) in experiment [5]; 1.25 µM (≈ 1.6 µg/mL) in experiment [16]. Moreover, the MIC in experiment [6] worked out at 8 µM (≈ 10.3 µg/mL); in experiment [7], 4 µM (≈ 5.13 µg/mL); in experiment [17], 8 µM (≈ 10.3 µg/mL); in [8], 2 µM (≈ 2.57 µg/mL); in experiment [9] it was 4 µM (≈ 5.13 µg/mL); in [11], 8 µM (≈ 10.3 µg/mL). For the same compound, the minimum inhibitory concentration (MIC) was 2 µM (≈ 2.57 µg/mL) in experiment [12], 1 µM (≈ 1.28 µg/mL) in experiment [13] and 5 µM (≈ 6.42 µg/mL) in experiment [18].

For the compound `C[C@H](NC(=O)[C@H](CCCCN)NC(=O)[C@H](CCCCN)NC(=O)[C@H](CCCN=C(N)N)NC(=O)CNC(=O)[C@H](Cc1c[nH]c2ccccc12)NC(=O)[C@H](CCCN=C(N)N)NC(=O)[C@H](CCCN=C(N)N)NC(=O)[C@H](CCCCN)NC(=O)[C@H](Cc1c[nH]c2ccccc12)NC(=O)[C@H](CCCCN)NC(=O)[C@H](Cc1c[nH]c2ccccc12)NC(=O)[C@H](Cc1c[nH]c2ccccc12)NC(=O)[C@H](CCCCN)NC(=O)[C@@H]1CCCN1C(=O)[C@@H](N)Cc1c[nH]c2ccccc12)C(=O)N[C@@H](CCCCN)C(=O)N[C@@H](CCCCN)C(=O)N[C@@H](CCCN=C(N)N)C(=O)N[C@@H](CCCN=C(N)N)C(=O)NCC(N)=O` [WPKWWKWKRRWGRKKAKKRRG], the minimum inhibitory concentration (MIC) is 22 µM (≈ 64 µg/mL) in experiment [19]; at least 88 µM in experiment [20]; 11 µM (≈ 32 µg/mL) in experiment [21]; at least 44 µM in [22]; 22 µM (≈ 64 µg/mL) in experiment [23]; at least 88 µM in experiment [24]. Besides, the MIC in [25] is at least 88 µM; in [26], at least 44 µM; in [27], 22 µM (≈ 64 µg/mL); in experiment [28], 5.5 µM (≈ 16 µg/mL); in experiment [29], 11 µM (≈ 32 µg/mL); in [30] it was 5.5 µM (≈ 16 µg/mL). Further, the minimal inhibitory concentration (MIC) is 11 µM (≈ 32 µg/mL) in experiment [31]; 44 µM and 43.9 µM in [32]; at least 44 µM in experiment [33]; at least 352 µM in [34]; at least 352 µM in experiment [35]; 22 µM (≈ 64 µg/mL) in experiment [36]. Besides, the MIC in experiment [37] is 11 µM (≈ 32 µg/mL); in experiment [38] it was at least 44 µM; in [39] it was 22 µM (≈ 64 µg/mL); in experiment [40] it was 11 µM and 10.9 µM; in experiment [41], 5.5 µM (≈ 16 µg/mL); in [42], 22 µM (≈ 64 µg/mL). For the same compound, the minimal inhibitory concentration (MIC) in experiment [43] is 11 µM (≈ 32 µg/mL); in experiment [44], 5.5 µM (≈ 16 µg/mL); in experiment [45] it was 2.75 µM (≈ 8 µg/mL); in experiment [46], 5.5 µM (≈ 16 µg/mL); in experiment [47], 5.5 µM (≈ 16 µg/mL); in [48], 2.75 µM (≈ 8 µg/mL). Also, the MIC in experiment [49] was determined as 1.37 µM (≈ 4 µg/mL); in experiment [50], 5.5 µM (≈ 16 µg/mL); in [51], 2.75 µM (≈ 8 µg/mL).
